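Five compound concentrations were applied to cells in 96-well plates for 48 hours; endpoints were derived by simple linear interpolation of the resulting dose-response curve. The concentration for 50% growth inhibition is given as GI50.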 Active and inactive are the calls of the source. Rule as the data show it: active = GI50 up to about 1.1 µM and inactive = higher.

Some test systems named below: CAKI-1; K562; RXF 393; HCT-15; ACHN; SW-620; MDA-MB-435; COLO 205; HOP-62; NCI-H460; SNB-19; OVCAR-3; NCI-H522; DU-145; SK-OV-3; SK-MEL-5; MDA-MB-231; TK-10; Malme-3M; SK-MEL-2.
Common to all, as to assay: DTP human tumour cell line panel, 48 h

A word on the GI50: it is the concentration at which growth is held to half of that of the control. Turning to `Cc1n[nH]c(=O)n1/N=C/c1ccc(F)cc1`, the GI50 in the assay on CAKI-1 is > 100 µM (inactive); with K562, > 100 µM (inactive); in the assay on RXF 393, 40.6 µM (inactive); in the assay with HCT-15, > 100 µM; with ACHN, > 100 µM (inactive); with SW-620, > 100 µM (inactive). For the same molecule, the GI50 with MDA-MB-435, in the assay on COLO 205, with HOP-62, in the assay with NCI-H460, in the assay on SNB-19 and in the assay with OVCAR-3 was > 100 µM (inactive) in each case. The GI50 in the assay on NCI-H522, in the assay on DU-145 and in the assay with SK-OV-3 was > 100 µM (inactive) in each case.
With `C#CC(C)(C)OC(=O)C(=[N+]=[N-])C(C)=O`, the GI50 in the assay with SK-MEL-5 is > 10 µM (inactive); in the assay with K562, > 10 µM (inactive); in the assay on RXF 393, > 10 µM (inactive); in the assay with MDA-MB-231 it was > 10 µM (inactive); with HCT-15, > 10 µM; in the assay on ACHN, > 10 µM (inactive). The GI50 with SW-620, in the assay on MDA-MB-435, with TK-10, in the assay with Malme-3M, with HOP-62 and in the assay on NCI-H460 was > 10 µM (inactive) in each case. Further, the GI50 with SNB-19, in the assay on OVCAR-3, in the assay on SK-MEL-2, with DU-145 and in the assay with SK-OV-3 was > 10 µM (inactive) throughout.
`N#Cc1c(-c2cccc(Br)c2)cc(-c2ccc(Cl)cc2)nc1N`: the GI50 was 15.2 µM (inactive) in the assay with SK-MEL-5; 25.6 µM (inactive) with CAKI-1; 25.6 µM (inactive) with K562; 15.8 µM (inactive) with RXF 393; 14.1 µM in the assay with HCT-15; 21.8 µM (inactive) in the assay on ACHN. The GI50 in the assay with SW-620 was 18.2 µM (inactive); with MDA-MB-435, 18.2 µM (inactive); in the assay on COLO 205 it was 13.7 µM (inactive); in the assay on TK-10 it was 18.7 µM (inactive); in the assay on Malme-3M it was 23.7 µM (inactive); with HOP-62, 23.5 µM (inactive). In addition, the GI50 with NCI-H460 was 21.2 µM (inactive); in the assay with SNB-19, 18.7 µM (inactive); with OVCAR-3, 25.4 µM (inactive); with SK-MEL-2 it was 11.6 µM (inactive); in the assay with NCI-H522, 14.1 µM (inactive); with DU-145, 46 µM (inactive). Further, the GI50 with SK-OV-3 was 16.8 µM (inactive).
As for `CCOC(=O)C1=c2[nH]c3cccc4cccc(c43)n2C=C(C(C)=O)C1CC(C)=O` (configuration not stated), the GI50 is > 100 µM (inactive) in the assay with SK-MEL-5; 56.6 µM (inactive) in the assay on CAKI-1; > 100 µM (inactive) with K562; 56.1 µM (inactive) in the assay with RXF 393; 44 µM in the assay on HCT-15; 80 µM (inactive) with ACHN. The GI50 in the assay on SW-620 was 40.6 µM (inactive); with MDA-MB-435 it was 52.6 µM (inactive); in the assay with COLO 205 it was 35.1 µM (inactive); in the assay on TK-10 it was > 100 µM (inactive); with HOP-62, 68.7 µM (inactive); in the assay on NCI-H460 it was > 100 µM (inactive). The GI50 was 55.2 µM (inactive) in the assay with SNB-19; > 100 µM (inactive) in the assay with OVCAR-3; > 100 µM (inactive) in the assay on SK-MEL-2; > 100 µM (inactive) with DU-145; 6.4 µM (inactive) in the assay with SK-OV-3.
For `COc1ccc(C(=O)C(c2ccc(OC)cc2)C2(O)C(=O)Nc3c(Cl)cc(Cl)cc32)cc1` (configuration not stated), the GI50 in the assay with SK-MEL-5 was 18.5 µM (inactive); in the assay with CAKI-1 it was 19.1 µM (inactive); in the assay with K562 it was 16.6 µM (inactive); in the assay with RXF 393 it was 22.3 µM (inactive); with HCT-15 it was 21.5 µM; in the assay on ACHN, 22.8 µM (inactive). Moreover, the GI50 in the assay on SW-620 was 17.6 µM (inactive); in the assay with COLO 205 it was 29.4 µM (inactive); in the assay on TK-10, 22.5 µM (inactive); with Malme-3M, 15.5 µM (inactive); in the assay with HOP-62, 23.8 µM (inactive); in the assay with NCI-H460, 20.7 µM (inactive). Moreover, the GI50 was 23.8 µM (inactive) in the assay on SNB-19; 22.8 µM (inactive) in the assay on OVCAR-3; 14.1 µM (inactive) in the assay with SK-MEL-2; 18.2 µM (inactive) in the assay on NCI-H522; 50.7 µM (inactive) with SK-OV-3.
`Cc1cnc(-c2c[nH]c3ccccc23)nc1-c1c[nH]c2ccccc12`: the GI50 is 6.97 µM (inactive) in the assay on SK-MEL-5; 5.4 µM (inactive) in the assay on CAKI-1; 3.3 µM (inactive) with K562; 2.31 µM (inactive) with MDA-MB-231; 5.81 µM with HCT-15; 2.94 µM (inactive) in the assay on ACHN. For the same molecule, the GI50 in the assay with SW-620 is 11.5 µM (inactive); in the assay with MDA-MB-435 it was 5.87 µM (inactive); with COLO 205 it was 4.58 µM (inactive); with TK-10, 5.31 µM (inactive); in the assay with HOP-62, 11.7 µM (inactive); with NCI-H460, 2.65 µM (inactive). Further, the GI50 in the assay with SNB-19 is 7.89 µM (inactive); with OVCAR-3, 8.13 µM (inactive); in the assay with SK-MEL-2 it was 6.44 µM (inactive); with DU-145, 6.73 µM (inactive); in the assay on SK-OV-3 it was 11.2 µM (inactive).
On to `CS/C(=N\C(=S)Nc1ccccc1)Nc1ccccc1`, for which the GI50 with SK-MEL-5 is 6.01 µM (inactive); in the assay with CAKI-1, 14.6 µM (inactive); in the assay on K562, 12.6 µM (inactive); in the assay on RXF 393 it was 15.2 µM (inactive); with HCT-15, 17.9 µM; in the assay with ACHN it was 17.5 µM (inactive). Besides, the GI50 in the assay on SW-620 is 23.1 µM (inactive); in the assay with COLO 205, 23.8 µM (inactive); with TK-10 it was 14.2 µM (inactive); in the assay with Malme-3M, 15.2 µM (inactive); in the assay with HOP-62, 27.9 µM (inactive); in the assay with NCI-H460, 12 µM (inactive). The GI50 in the assay with SNB-19 is 21.7 µM (inactive); in the assay on OVCAR-3, 21 µM (inactive); in the assay on SK-MEL-2 it was 15.5 µM (inactive); in the assay with NCI-H522, 14.6 µM (inactive); in the assay with SK-OV-3, 27 µM (inactive).
`OC(c1ccccn1)C1CNc2ccccc21` (configuration not stated): the GI50 is > 100 µM (inactive) with SK-MEL-5; > 100 µM (inactive) with CAKI-1; > 100 µM (inactive) in the assay with K562; > 100 µM (inactive) in the assay on RXF 393; > 100 µM with HCT-15; > 100 µM (inactive) in the assay with ACHN. In addition, the GI50 in the assay with SW-620, in the assay with COLO 205, with TK-10, in the assay with Malme-3M, in the assay with HOP-62 and with NCI-H460 was > 100 µM (inactive) throughout. For the same molecule, the GI50 in the assay with SNB-19, with OVCAR-3, in the assay on SK-MEL-2, in the assay on NCI-H522 and with SK-OV-3 was > 100 µM (inactive) in each case.
For the molecule `COC(=O)c1c(C)[nH]c2c1C(=O)C(=O)c1nc(C)c(C)nc1-2`, the GI50 in the assay with SK-MEL-5 is 5.77 µM (inactive); with CAKI-1, 6.75 µM (inactive); with K562 it was 9.38 µM (inactive); with RXF 393, 1.98 µM (inactive); in the assay on HCT-15, 9.98 µM; in the assay with ACHN, 2.85 µM (inactive). In addition, the GI50 in the assay on SW-620 is 10.8 µM (inactive); in the assay on MDA-MB-435 it was 10.7 µM (inactive); with COLO 205, 8.63 µM (inactive); in the assay with TK-10, 3.6 µM (inactive); in the assay on Malme-3M, 3.58 µM (inactive); in the assay with HOP-62 it was 5.98 µM (inactive). The GI50 in the assay on NCI-H460 was 5.27 µM (inactive); in the assay on SNB-19, 4.76 µM (inactive); with OVCAR-3, 9.79 µM (inactive); in the assay with SK-MEL-2, 3.86 µM (inactive); with NCI-H522, 3.48 µM (inactive); with DU-145 it was 6.04 µM (inactive). Further, the GI50 in the assay on SK-OV-3 was 3.5 µM (inactive).
Regarding `CS(=O)(=O)CC(=O)c1ccccc1`, the GI50 in the assay on SK-MEL-5 is > 100 µM (inactive); in the assay on K562 it was > 100 µM (inactive); in the assay on RXF 393 it was > 100 µM (inactive); with HCT-15 it was > 100 µM; in the assay with ACHN, > 100 µM (inactive); in the assay with SW-620, > 100 µM (inactive). The GI50 with MDA-MB-435, with COLO 205, in the assay with TK-10, in the assay on Malme-3M, in the assay on HOP-62 and with NCI-H460 was > 100 µM (inactive) throughout. Besides, the GI50 in the assay on SNB-19, with OVCAR-3, with SK-MEL-2, in the assay with NCI-H522, in the assay on DU-145 and in the assay on SK-OV-3 was > 100 µM (inactive) in each case.
In the case of `CC(C(=O)n1c2ccccc2c2ccccc21)N(c1ccccc1)c1ccccc1` (configuration not stated), the GI50 in the assay on SK-MEL-5 was 20.1 µM (inactive); with CAKI-1, 14.5 µM (inactive); in the assay on K562, 16.9 µM (inactive); in the assay with RXF 393, 14.6 µM (inactive); in the assay on HCT-15, 17 µM; with ACHN, 16.6 µM (inactive). For the same molecule, the GI50 was 19.8 µM (inactive) with SW-620; 17.4 µM (inactive) in the assay on COLO 205; 20 µM (inactive) in the assay with TK-10; 15.1 µM (inactive) with Malme-3M; 16.3 µM (inactive) in the assay on HOP-62; 34.6 µM (inactive) in the assay with NCI-H460. Besides, the GI50 in the assay with SNB-19 was 45.1 µM (inactive); with OVCAR-3 it was 17.8 µM (inactive); in the assay with SK-MEL-2, 15.1 µM (inactive); in the assay with NCI-H522 it was 2.75 µM (inactive); in the assay on SK-OV-3, 18.7 µM (inactive).
Consider `O=C1OC(CC(=O)c2ccccc2Cl)C(Cl)=C1Cl` (configuration not stated), for which the GI50 in the assay with SK-MEL-5 was > 100 µM (inactive); with CAKI-1, > 100 µM (inactive); in the assay with K562, > 100 µM (inactive); with RXF 393 it was > 100 µM (inactive); in the assay with HCT-15, > 100 µM; in the assay on ACHN, > 100 µM (inactive). For the same molecule, the GI50 with SW-620, in the assay with COLO 205, in the assay on TK-10, in the assay with Malme-3M, in the assay with HOP-62 and in the assay on NCI-H460 was > 100 µM (inactive) in each case. Also, the GI50 in the assay on SNB-19, in the assay on OVCAR-3, in the assay on SK-MEL-2, in the assay on NCI-H522 and in the assay on SK-OV-3 was > 100 µM (inactive) each time.

(Values after ChEMBL document CHEMBL1201862, “PubChem BioAssay data set” (2004).)
